The source of these data is PMC4492579, “Potent and Selective Triazole-Based Inhibitors of the Hypoxia-Inducible Factor Prolyl-Hydroxylases with Activity in the Murine Brain” (PLoS ONE, 2015).

One assay concerns the target T1, JMJD2A (KDM4A) (Homo sapiens, UniProt O75164).
T1 sequence (O75164 1-1064): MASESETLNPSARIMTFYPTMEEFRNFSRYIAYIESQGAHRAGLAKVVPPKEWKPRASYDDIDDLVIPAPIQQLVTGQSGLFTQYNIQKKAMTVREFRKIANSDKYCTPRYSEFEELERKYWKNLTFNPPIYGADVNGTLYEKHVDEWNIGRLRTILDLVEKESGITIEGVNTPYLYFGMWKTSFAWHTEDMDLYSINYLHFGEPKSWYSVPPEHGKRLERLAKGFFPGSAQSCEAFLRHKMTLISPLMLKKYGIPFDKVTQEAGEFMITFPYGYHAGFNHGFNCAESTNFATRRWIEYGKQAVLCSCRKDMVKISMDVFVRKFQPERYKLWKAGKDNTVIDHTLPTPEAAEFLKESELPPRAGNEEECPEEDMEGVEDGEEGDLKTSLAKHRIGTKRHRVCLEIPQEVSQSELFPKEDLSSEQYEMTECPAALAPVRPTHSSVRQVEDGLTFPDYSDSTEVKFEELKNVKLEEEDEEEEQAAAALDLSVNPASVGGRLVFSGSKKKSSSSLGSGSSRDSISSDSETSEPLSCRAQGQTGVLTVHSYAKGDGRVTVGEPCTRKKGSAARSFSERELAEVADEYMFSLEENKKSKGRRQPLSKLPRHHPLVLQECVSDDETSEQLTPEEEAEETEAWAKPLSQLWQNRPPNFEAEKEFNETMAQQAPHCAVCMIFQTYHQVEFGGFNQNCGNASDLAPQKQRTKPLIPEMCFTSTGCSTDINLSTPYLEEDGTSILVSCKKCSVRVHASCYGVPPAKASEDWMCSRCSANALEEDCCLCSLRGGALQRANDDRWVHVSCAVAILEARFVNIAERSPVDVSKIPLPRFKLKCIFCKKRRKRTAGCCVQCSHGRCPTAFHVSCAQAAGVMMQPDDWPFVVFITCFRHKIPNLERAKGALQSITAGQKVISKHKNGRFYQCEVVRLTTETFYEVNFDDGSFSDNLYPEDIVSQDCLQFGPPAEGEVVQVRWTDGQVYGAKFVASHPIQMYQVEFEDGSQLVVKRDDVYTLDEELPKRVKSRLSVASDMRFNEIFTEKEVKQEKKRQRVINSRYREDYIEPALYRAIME
Details: method as in PMID 26682036. The note with it: cited from earlier work.

The target in another assay is T2, JMJD2E (KDM4E) (Homo sapiens, UniProt B2RXH2).
T2 sequence (B2RXH2 1-506): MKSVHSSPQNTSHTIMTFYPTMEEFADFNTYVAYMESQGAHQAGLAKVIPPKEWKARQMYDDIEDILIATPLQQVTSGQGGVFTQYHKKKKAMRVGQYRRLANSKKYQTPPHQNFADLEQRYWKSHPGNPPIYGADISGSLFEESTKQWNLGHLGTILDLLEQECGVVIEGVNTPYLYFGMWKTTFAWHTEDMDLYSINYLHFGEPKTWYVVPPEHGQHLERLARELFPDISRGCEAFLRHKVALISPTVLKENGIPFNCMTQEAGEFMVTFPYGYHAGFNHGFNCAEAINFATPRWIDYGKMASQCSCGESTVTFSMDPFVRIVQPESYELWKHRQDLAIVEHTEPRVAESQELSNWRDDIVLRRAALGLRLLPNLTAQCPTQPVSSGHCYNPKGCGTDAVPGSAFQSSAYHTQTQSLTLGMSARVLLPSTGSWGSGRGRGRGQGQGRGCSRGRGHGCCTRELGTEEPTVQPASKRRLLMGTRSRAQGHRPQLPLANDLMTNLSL
Details: method as in PMID 26682036. The conditions noted are these: cited from earlier work.

For the next assay, the target named is JMJD3 (KDM6B) (Homo sapiens, UniProt O15054). Details: method as in PMID 26682036. The conditions noted are these: cited from earlier work.
For a further assay, the system named is HIF target genes. The assay is described as follows: qRT-PCR of HIF target genes in mouse brain. The assay is classed as in vivo, C57BL/6 mice. The note with it: 1 h treatment. The method, then: All animal experiments were performed on male C57BL/6 mice aged 3 months (purchased from Harlan Laboratories, Blackthorn) housed in specific pathogen free conditions with free access to water and standard chow. Mice were injected intraperitonially with the inhibitor (dissolved in Hanks’ buffered saline solution, pH 7.0, 5% DMSO final) or vehicle at the indicated doses for the indicated time as previously described. Tissues from treated mice were harvested and ‘snap frozen’ with liquid nitrogen before being stored at -80°C. For immunoblotting, a portion of the tissues was removed, weighed and homogenised in urea/SDS buffer before being analysed by immunoblotting with HIF1α rabbit polyclonal antibody (10006421, Cayman Chemical, 1:1000) or HIF2α rabbit polyclonal antibody (PM9 [27], 1:1000). […]
Genomic DNA were removed from total RNA preparation using the TURBO DNA-free kit (AM1907, Life Technologies) according to manufacturer’s protocol. […] Relative quantifications were calculated using the ∆∆Ct method normalised to β-actin. […]
To investigate whether the induction of HIFα in the mouse brain has an effect on HIF target genes, we performed quantitative real-time PCR (qRT-PCR) analyses on HIF target genes (including those involved in angiogenesis, i.e. Vegfa, Adm and Il6).
A general note: Real-time PCR tracks product formation cycle by cycle.

JMJD3 (KDM6B), sequence (O15054 whole entry): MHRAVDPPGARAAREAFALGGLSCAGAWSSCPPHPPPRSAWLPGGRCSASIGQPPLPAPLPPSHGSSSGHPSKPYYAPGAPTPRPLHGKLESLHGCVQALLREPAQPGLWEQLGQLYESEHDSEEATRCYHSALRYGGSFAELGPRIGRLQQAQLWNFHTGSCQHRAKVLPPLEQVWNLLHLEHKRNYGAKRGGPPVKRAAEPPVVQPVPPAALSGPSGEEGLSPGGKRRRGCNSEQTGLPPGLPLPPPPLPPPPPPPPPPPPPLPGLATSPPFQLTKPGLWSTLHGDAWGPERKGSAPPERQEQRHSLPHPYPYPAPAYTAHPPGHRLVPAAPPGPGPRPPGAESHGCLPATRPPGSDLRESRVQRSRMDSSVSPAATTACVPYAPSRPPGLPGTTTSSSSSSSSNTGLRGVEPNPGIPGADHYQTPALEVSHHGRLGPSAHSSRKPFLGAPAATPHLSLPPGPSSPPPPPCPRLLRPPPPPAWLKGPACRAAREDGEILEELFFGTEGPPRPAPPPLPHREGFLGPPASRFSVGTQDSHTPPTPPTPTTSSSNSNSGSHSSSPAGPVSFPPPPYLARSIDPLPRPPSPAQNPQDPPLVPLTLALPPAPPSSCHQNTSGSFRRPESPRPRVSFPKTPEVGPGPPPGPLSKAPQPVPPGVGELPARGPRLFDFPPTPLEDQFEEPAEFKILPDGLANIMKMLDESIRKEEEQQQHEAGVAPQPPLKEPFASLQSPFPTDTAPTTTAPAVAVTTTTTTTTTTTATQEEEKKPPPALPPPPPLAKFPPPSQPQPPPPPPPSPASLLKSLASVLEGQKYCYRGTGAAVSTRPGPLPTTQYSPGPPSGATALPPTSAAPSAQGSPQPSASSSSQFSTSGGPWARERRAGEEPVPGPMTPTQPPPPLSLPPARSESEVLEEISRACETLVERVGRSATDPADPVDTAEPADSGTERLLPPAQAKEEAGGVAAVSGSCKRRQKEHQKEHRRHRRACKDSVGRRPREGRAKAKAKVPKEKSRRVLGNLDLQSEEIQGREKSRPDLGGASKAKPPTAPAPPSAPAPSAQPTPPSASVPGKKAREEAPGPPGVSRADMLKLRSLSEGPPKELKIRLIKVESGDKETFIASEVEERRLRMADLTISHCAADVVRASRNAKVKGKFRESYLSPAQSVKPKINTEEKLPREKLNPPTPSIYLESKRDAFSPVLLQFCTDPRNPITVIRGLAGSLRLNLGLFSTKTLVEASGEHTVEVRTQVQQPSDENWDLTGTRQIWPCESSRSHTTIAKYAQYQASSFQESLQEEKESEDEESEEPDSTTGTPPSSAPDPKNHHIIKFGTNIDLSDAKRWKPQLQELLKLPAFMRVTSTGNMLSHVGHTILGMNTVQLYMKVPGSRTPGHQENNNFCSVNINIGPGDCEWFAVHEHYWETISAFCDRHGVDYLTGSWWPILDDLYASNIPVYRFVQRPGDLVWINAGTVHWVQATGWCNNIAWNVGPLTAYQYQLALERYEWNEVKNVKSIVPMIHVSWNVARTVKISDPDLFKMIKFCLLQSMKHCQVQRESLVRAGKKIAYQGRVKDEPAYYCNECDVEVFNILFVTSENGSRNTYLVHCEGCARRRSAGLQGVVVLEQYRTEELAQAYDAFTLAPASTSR

By IC50 is commonly meant the concentration needed to halve the response being measured. Regarding `O=C(O)CNC(=O)c1c(O)c2ccccc2n(Cc2ccccc2)c1=O` [IOX2], the figures for the half-inhibitory concentration (IC50) at JMJD2A (KDM4A), on JMJD2E (KDM4E) and at JMJD3 (KDM6B) were 100 µM, above 100 µM and above 100 µM, respectively.

For `CC(C)(C)OC(=O)c1ccc(-n2[nH]cc(-n3ccnn3)c2=O)nc1` [IOX4, t-Butyl 6-(5-oxo-4-(1H-1,2,3-triazol-1-yl)-2,5-dihydro-1H-pyrazol-1-yl)nicotinate], in the assay with HIF target genes, the “mRNA levels of HIF target genes Bnip3, Ldha and Il6 in mouse brain” value was “remain unaffected”; the “mRNA levels of HIF target genes Epo, Vegfa and Adm in mouse brain” value is “induced in a dose-dependent manner”.
